Test results taken from article PMC7076710, “Synthesis, Identification, and Structure–Activity Relationship Analysis of GATA4 and NKX2-5 Protein–Protein Interaction Modulators” (Journal of Medicinal Chemistry, 2019).
Blank lines part the entries; values can stand above or below the compound they belong to.

Target: T1, GATA4–NKX2-5 transcriptional synergy (Mus musculus, UniProt P42582+Q08369)
T1 construct: expressed in transfected cells; host or cells: COS-1
Assay: GATA4–NKX2-5 transcriptional synergy luciferase reporter assay (3xNKE reporter, COS-1 cells)
Assay type: cell-based
Description: To screen compounds for the GATA4–NKX2-5 interaction, we have developed a luciferase reporter assay based on their property to activate gene transcription synergistically through the NKX2-5 binding site on DNA.[28] In this assay, we transfected mammalian COS-1 cells with protein expression vectors for GATA4 and NKX2-5 proteins together with artificial luciferase reporter vector containing three high affinity binding sites for NKX2-5 (NKE). […] All 257 compounds were tested in two concentrations, 3 and 10 μM. Compounds either inhibited, enhanced, or had no effect on the GATA4–NKX2-5 transcriptional synergy. To investigate the selectivity of the active compounds, we tested their effects on NKX2-5 transcriptional activity by using the same luciferase reporter vector as in transcriptional synergy assay with three NKE sites (Figure 3B). Furthermore, we used GATA luciferase reporter assay to examine if compounds have an effect on GATA4 transcriptional activity. In this assay, we cotransfected the cells with a GATA4 protein expression vector and a reporter vector with tandem GATA4 binding sites (Figure 3C). Previously we have reported that compound 1 inhibited the GATA4–NKX2-5 transcriptional synergy at micromolar concentrations (IC50 = 3 μM).[29]
The plasmids expressing mouse GATA4 protein, pMT2-GATA4, and empty pMT2 were gifts from D. B. Wilson (Department of Pediatrics, St. Louis Children’s Hospital, St. Louis, MO).[44] The plasmids expressing mouse NKX2-5 protein, pMT2-NKX2-5, have been described earlier.[28] The luciferase reporter plasmid used in GATA4–NKX2-5 transcriptional synergy assay and NKX transcriptional assay, pGL3-3xHA, contains three high affinity binding sites for NKX2-5.[28] The luciferase reporter plasmid used in GATA transcriptional assay, NP-112, contains tandem GATA-sites and minimal promoter of rat brain natriuretic peptide (BNP) gene.[45] The pGL3-BNP luciferase reporter containing −534/+4 bp rat BNP proximal promoter described previously was used in hypertrophy assay.[46]
The primary screening assay of compounds’ effect on GATA4–NKX2-5 transcriptional synergy and COS-1 cell culturing has been described earlier.[33] […] (Kinnunen et al., unpublished observation). Briefly, COS-1 cells were seeded at 14 000 cells/well in Isoplate-96 microplates (PerkinElmer, Turku, Finland) and grown overnight. The cells were transfected with the luciferase reporter plasmid pGL3-3xHA 100 ng/well and equal amounts of expression plasmids pMT2-GATA4 and pMT2-NKX2-5 total 50 ng/well. To verify the synergistic effect, the cells were transfected with pMT2-GATA4 or pMT2-NKX2-5 25 ng/well, and the total DNA concentration was adjusted to 50 ng/well with empty pMT2 plasmid. In NKX2-5 and GATA4 luciferase reporter assays, the cells were transfected with reporter plasmid pGL3-3xHA or NP-112 (100 ng/well) and expression plasmid pMT2-NKX2-5 or pMT2-GATA4 (25 ng/well). The ratio of DNA/transfection reagent (Fugene 6, Promega) was 1:3 in all assays. The transfections were performed in serum and antibiotics free media for 6 h. The cells were treated with compounds or vehicle (0.1% DMSO) for 24 h, and the luminescence was measured using neolite Reporter Gene Assay System (PerkinElmer, Turku, Finland) and Victor2 plate reader (PerkinElmer, Turku, Finland).
Raw luciferase data were analyzed in Excel, and clear outliers were removed from triplicates by using the Grubb’s test. Data analysis was performed using R.[49] The luciferase data were first normalized on the basis of the combined mean value of controls. For data visualization and creation of figures, the following R packages were used: ggplot2, cowplot, RColorBrewer, and pheatmap. The heatmaps of the toxicity data were produced with GraphPad Prism 7.00 (GraphPad Software, La Jolla, CA). Statistical significance of luciferase reporter assay data was evaluated by randomized block analysis of variance followed by Dunnett’s post hoc test. […]

[1] = COS-1, compound 3 µM, luciferase reporter activity, spread in separate STDEV column
[2] = COS-1, compound 10 µM, luciferase reporter activity, spread in separate STDEV column
[3] = COS-1, compound 3 µM, luciferase reporter activity relative to control
[4] = COS-1, compound 10 µM, luciferase reporter activity relative to control
[5] = COS-1, 3 µM, luciferase reporter activity, % of control
[6] = COS-1, 10 µM, luciferase reporter activity, % of control
[7] = 3 µM compound, GATA4–NKX2-5 transcriptional synergy reporter, COS-1 cells
[8] = 10 µM compound, GATA4–NKX2-5 transcriptional synergy reporter, COS-1 cells
[9] = COS-1, GATA4-NKX2-5 transcriptional synergy luciferase reporter assay, compound at 3 µM
[10] = COS-1, GATA4-NKX2-5 transcriptional synergy luciferase reporter assay, compound at 10 µM
[11] = COS-1, compound at 3 µM, luciferase reporter activity, % of control
[12] = COS-1, compound at 10 µM, luciferase reporter activity, % of control

T1 sequence (Q08369 whole entry): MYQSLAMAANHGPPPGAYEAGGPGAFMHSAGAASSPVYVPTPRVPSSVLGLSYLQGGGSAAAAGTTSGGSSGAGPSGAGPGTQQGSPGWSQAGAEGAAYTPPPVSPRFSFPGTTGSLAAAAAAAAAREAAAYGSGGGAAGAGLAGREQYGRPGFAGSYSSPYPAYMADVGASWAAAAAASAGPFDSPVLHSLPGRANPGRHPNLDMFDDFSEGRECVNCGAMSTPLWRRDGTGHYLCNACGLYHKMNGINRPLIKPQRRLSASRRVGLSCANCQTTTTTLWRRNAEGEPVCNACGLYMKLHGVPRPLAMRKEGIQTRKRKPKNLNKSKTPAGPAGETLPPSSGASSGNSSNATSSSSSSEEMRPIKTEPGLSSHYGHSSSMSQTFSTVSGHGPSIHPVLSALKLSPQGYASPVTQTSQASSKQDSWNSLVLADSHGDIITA
T1 sequence (P42582 whole entry): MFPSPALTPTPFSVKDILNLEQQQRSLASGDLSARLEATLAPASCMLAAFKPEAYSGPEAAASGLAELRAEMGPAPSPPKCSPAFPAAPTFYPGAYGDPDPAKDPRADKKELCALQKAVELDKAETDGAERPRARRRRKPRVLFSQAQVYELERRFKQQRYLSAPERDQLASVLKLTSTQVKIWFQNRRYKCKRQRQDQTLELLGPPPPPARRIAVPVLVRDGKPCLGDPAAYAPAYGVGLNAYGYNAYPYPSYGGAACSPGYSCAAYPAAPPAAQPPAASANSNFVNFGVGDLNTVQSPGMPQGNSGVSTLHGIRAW

activity at 3 µM [1]: 127%
activity at 10 µM [2]: 138%
SMILES: CCC(C)NC(=O)c1cc(-c2ccco2)on1 (centres unmarked) [Compound 69]

activity at 3 µM [3]: 109%
activity at 10 µM [4]: 105%
SMILES: Cc1noc(-c2ccccc2)c1C(=O)Nc1ccc(CN(C)C)cc1 [SI71]

activity at 3 µM [1]: 99.4%
activity at 10 µM [2]: 82.7%
SMILES: Cc1onc(-c2ccccc2)c1C(=O)Nc1ccc(C(=O)OCc2ccco2)cc1 [SI2]

activity at 3 µM [5]: 99.2%
activity at 10 µM [6]: 87.1%
SMILES: Cc1onc(-c2ccccc2)c1NC(=O)OC(C)(C)C [SI17]

activity at 3 µM [7]: 102%
activity at 10 µM [8]: 99.7%
SMILES: CCN(CC)c1ccc(/N=C/c2c(-c3ccccc3)noc2C)cc1 [Compound 19, (E)-N^1,N^1-Diethyl-N^4-[(5-methyl-3-phenylisoxazol-4-yl)methylene]benzene-1,4-diamine]

activity at 3 µM [7]: 88.1%
activity at 10 µM [8]: 68.4%
SMILES: Cc1cc(NC(=O)c2cnn(C)c2-c2ccccc2)ccc1C(C)C [SI87]

activity at 3 µM [9]: 101%
activity at 10 µM [10]: 90.6%
SMILES: O=C1COc2ccc(NC(=O)c3cc(-c4ccccc4)[nH]n3)cc2N1 [SI121]

activity at 3 µM [11]: 108%
activity at 10 µM [12]: 99.5%
SMILES: Cc1onc(-c2ccccc2)c1C(=O)Nc1cnc2ccccc2c1 [SI12]

activity at 3 µM [3]: 79.3%
SMILES: CCN(CC)C(=O)c1ccc(OCc2c(-c3ccccc3)noc2C)cc1 [Compound 36b]

activity at 3 µM [1]: 94.8%
activity at 10 µM [2]: 70.7%
SMILES: CCN(CC)c1ccc(NC(=O)c2c[nH]nc2C2CCCCC2)cc1 [SI86]

activity at 3 µM [7]: 31%
SMILES: CCN(c1ccc(NC(=O)c2c(C)noc2-c2snnc2C)cc1)C(C)C [Compound 62]

activity at 3 µM [11]: 88.4%
SMILES: CC[N+](C)(c1ccc(NC(=O)c2c(-c3ccccc3)noc2C)cc1)C(C)C (centres unmarked) [Compound 7, N-Ethyl-N-isopropyl-N-methyl-4-(5-methyl-3-phenylisoxazole-4-carboxamido)benzenaminium Iodide]

activity at 3 µM [9]: 91.2%
activity at 10 µM [10]: 103%
SMILES: CC(C)c1ccc(NC(=O)c2n[nH]c3c2COc2ccccc2-3)cc1 [SI119]

activity at 3 µM [7]: 96.2%
activity at 10 µM [8]: 110%
SMILES: CSc1nsc(SC)c1C(=O)Nc1ccc2oc(-c3ccccc3)cc(=O)c2c1 [SI103]

activity at 3 µM [11]: 109%
activity at 10 µM [12]: 68.7%
SMILES: Cc1onc(-c2ccccc2)c1NC(=O)Nc1ccc(OC(F)(F)F)cc1 [SI23]

activity at 3 µM [5]: 91.6%
activity at 10 µM [6]: 79.1%
SMILES: CCN(CC)c1ccc(NS(=O)(=O)c2c(C)noc2C)cc1 [SI19]

activity at 3 µM [7]: 89%
activity at 10 µM [8]: 103%
SMILES: CCN(CC)c1ccc(NC(=O)c2ccoc2CCc2cccs2)cc1 [Compound 47i]

activity at 3 µM [11]: 109%
activity at 10 µM [12]: 100%
SMILES: COc1ccc(NC(=O)c2cnoc2-c2ccccc2)cc1 [SI70]

activity at 3 µM [5]: 114%
activity at 10 µM [6]: 145%
SMILES: CCN(CC)c1ccc(NC(=O)c2cnoc2C2CC2)cc1 [Compound 47r]

activity at 3 µM [3]: 103%
activity at 10 µM [4]: 106%
SMILES: COC(=O)c1c(-c2ccccc2)nnn1CCc1ccccc1 [SI111]

activity at 3 µM [5]: 74.9%
activity at 10 µM [6]: 54.1%
SMILES: CCN(CC)c1ccc(/N=C/c2onc(-c3ccccc3)c2C(=O)Nc2ccc(N(CC)CC)cc2)cc1 [Compound 48]

activity at 3 µM [1]: 112%
activity at 10 µM [2]: 115%
SMILES: CCN(CC)c1ccc(NC(=O)C2CCCC2)cc1 [Compound 57]

activity at 3 µM [7]: 90.8%
activity at 10 µM [8]: 78%
SMILES: Cc1cc(C(=O)Nc2ccc3oc(-c4ccccc4)cc(=O)c3c2)c(-c2ccccc2)o1 [SI101]

activity at 3 µM [9]: 82.9%
activity at 10 µM [10]: 87.7%
SMILES: Cc1cc(-c2noc(C)c2C(=O)Nc2ccc(Cl)cc2)no1 [SI134]

activity at 3 µM [1]: 108%
activity at 10 µM [2]: 100%
SMILES: CCN(CC)c1ccc(NC(=O)c2c(C)noc2-c2cc(-c3ccco3)on2)cc1 [SI76]

activity at 3 µM [11]: 83.5%
activity at 10 µM [12]: 78%
SMILES: Cc1onc(-c2ccccc2)c1C(=O)Nc1nc2ccccc2n1C [SI9]

activity at 3 µM [1]: 122%
activity at 10 µM [2]: 121%
SMILES: Cc1cc(-c2onc(C)c2C(=O)N(C)c2ccc3oc(-c4ccccc4)cc(=O)c3c2)no1 [SI77]

activity at 3 µM [1]: 85.8%
activity at 10 µM [2]: 98.5%
SMILES: CC(=O)COC(=O)c1ccc(NC(=O)c2c(-c3ccccc3)noc2C)cc1 [SI3]

activity at 3 µM [3]: 102%
SMILES: Cc1onc(-c2ccccc2)c1COc1ccc(C(=O)O)cc1 [Compound 38, 4-[(5-Methyl-3-phenylisoxazol-4-yl)methoxy]benzoic Acid]

activity at 3 µM [1]: 107%
activity at 10 µM [2]: 98.2%
SMILES: Cc1onc(-c2ccccc2)c1C(=O)Nc1ccc2c(c1)C(=O)CCC2 [SI14]

activity at 3 µM [11]: 93.7%
SMILES: CCN(CCO)c1ccc(NC(=O)c2c(-c3ccccc3)noc2C)cc1 [Compound 4b]

activity at 3 µM [1]: 124%
activity at 10 µM [2]: 115%
SMILES: CCN(CC)C(=O)c1cc(-c2cccs2)on1 [SI114]

activity at 3 µM [9]: 110%
activity at 10 µM [10]: 69.3%
SMILES: O=C(Nc1cc(-c2cccs2)n[nH]1)c1ccccc1 [SI128]

activity at 3 µM [11]: 95.3%
activity at 10 µM [12]: 112%
SMILES: Cc1onc(-c2ccccc2)c1NC(=O)c1ccc(CN(C)C)cc1 [SI33]

activity at 3 µM [7]: 115%
activity at 10 µM [8]: 112%
SMILES: CCN(CC)c1ccc(NC(=O)c2c(SC)nsc2SC)cc1 [Compound 47w]

activity at 3 µM [9]: 100%
activity at 10 µM [10]: 101%
SMILES: CCOC(=O)c1cc(NC(=O)c2cc(-c3ccccc3)no2)c[nH]1 [SI126]

activity at 3 µM [7]: 95%
SMILES: Cc1onc(-c2ccccc2)c1C(=O)Nc1ccc(C(=O)OCC#N)cc1 [Compound 10a, Cyanomethyl 4-(5-Methyl-3-phenylisoxazole-4-carboxamido)benzoate]

activity at 3 µM [1]: 90%
activity at 10 µM [2]: 105%
SMILES: Cc1onc(-c2ccc(Br)s2)c1C(=O)NC1CC1 [SI117]

activity at 3 µM [1]: 97.5%
activity at 10 µM [2]: 88.8%
SMILES: CCc1cc(-c2onc(C)c2C(=O)Nc2ccc(N(CC)CC)cc2)no1 [SI75]

activity at 3 µM [9]: 91.7%
activity at 10 µM [10]: 90.7%
SMILES: CCN(CC)c1ccc(NC(=O)c2cc(-c3ccco3)[nH]n2)cc1 [SI120]

activity at 3 µM [3]: 81.1%
SMILES: CCN(CC)c1ccc(NC(=O)c2cnn(C)c2-c2ccccc2)cc1 [Compound 47e]

activity at 3 µM [11]: 92.6%
SMILES: CCN(c1ccc(NC(=O)c2c(-c3ccccc3)noc2C)cc1N)C(C)C [Compound 9, N-[3-Amino-4-[ethyl(isopropyl)amino]phenyl]-5-methyl-3-phenylisoxazole-4-carboxamide]

activity at 3 µM [9]: 88.6%
activity at 10 µM [10]: 86.3%
SMILES: Cc1ccc(NC(=O)c2c(-c3cc(C)on3)noc2C)cc1 [SI133]

activity at 3 µM [7]: 93.2%
SMILES: C#Cc1ccc(NC(=O)c2c(-c3ccccc3)noc2C)cc1 [Compound 15, N-(4-Ethynylphenyl)-5-methyl-3-phenylisoxazole-4-carboxamide]

activity at 3 µM [11]: 79.8%
activity at 10 µM [12]: 108%
SMILES: COc1ccc(NC(=O)n2nc(N)cc2-c2ccc(OC)cc2)cc1 [SI99]

activity at 3 µM [5]: 89.2%
activity at 10 µM [6]: 99.8%
SMILES: CCN(CC)c1ccc(NC(=O)c2c(-c3ccc([N+](=O)[O-])cc3)noc2C)cc1 [Compound 39a]

activity at 3 µM [7]: 88.3%
SMILES: CCN(CC)c1ccc(NC(=O)c2ccnc(C(F)(F)F)c2)cc1 [Compound 47ac]

activity at 3 µM [7]: 95.9%
activity at 10 µM [8]: 132%
SMILES: CCN(CC)c1ccc(NC(=O)c2csc3nnsc23)cc1 [Compound 47v]
